Laboratory results taken from article PMC9918186, “Interaction of Positively Charged Oligopeptides with Blood Plasma Proteins” (International Journal of Molecular Sciences, 2023).
Non-standard residues stand in square brackets, D forms with d. Residues, ends and D or L forms follow the SMILES beside them. Phe(2-F) = N[C@@H](Cc1ccccc1F)C(=O)O; Orn = NCCC[C@H](N)C(=O)O; Dab = NCC[C@H](N)C(=O)O

Columns and labels:
BSA = target: T1, BSA (Bos taurus, UniProt P02769); conditions: 298 K, one-to-one stoichiometry; cited from earlier work
T1 construct: purchased Sigma Aldrich
T1 sequence (P02769 25-607): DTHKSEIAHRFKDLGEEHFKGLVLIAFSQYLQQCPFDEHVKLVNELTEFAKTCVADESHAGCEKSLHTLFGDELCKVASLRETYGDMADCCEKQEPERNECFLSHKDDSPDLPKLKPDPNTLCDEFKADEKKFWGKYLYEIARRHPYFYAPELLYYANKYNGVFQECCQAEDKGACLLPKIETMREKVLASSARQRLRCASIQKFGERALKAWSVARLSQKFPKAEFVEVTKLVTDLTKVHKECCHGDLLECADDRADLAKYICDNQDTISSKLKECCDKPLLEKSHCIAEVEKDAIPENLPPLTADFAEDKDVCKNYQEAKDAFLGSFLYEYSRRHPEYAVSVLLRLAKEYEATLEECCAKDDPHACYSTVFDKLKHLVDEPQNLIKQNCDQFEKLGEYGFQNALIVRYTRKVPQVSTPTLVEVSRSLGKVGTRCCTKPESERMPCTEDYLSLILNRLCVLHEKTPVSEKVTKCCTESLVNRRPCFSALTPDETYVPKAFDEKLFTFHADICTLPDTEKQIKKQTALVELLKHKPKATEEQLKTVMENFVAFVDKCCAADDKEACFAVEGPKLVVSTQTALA
Procedure: The enthalpy change (ΔH°), the entropic change (ΔS°), and the free energy change (ΔG°) were calculated from Equations (4) and (5):(4) […]=−ΔH^°/RT+ΔS^°/R (5) ΔG^°=ΔH^°−TΔS^°=−RTlnKb where Kb is the binding constant and R is the universal gas constant. To determine the thermodynamic parameters, the van’t Hoff plot w ...

[1] = target: bovine serum albumin (BSA) (Bos taurus, UniProt P02769); experiment: Fluorescence quenching of BSA by peptides L1–3
bovine serum albumin (BSA), sequence (P02769 25-607): as above
Procedure: Fluorescence spectroscopy was carried out to characterize the mechanism of the interaction between three plasma proteins, BSA, AAG, and GGF, with the studied peptides. The fluorescence spectra of protein were collected during titration of L1–L3. The excitation wavelength was set at λ = 280 nm (both Trp and Tyr residues were excited).
To confirm this, the fluorescence data were further analyzed by the Stern–Volmer Equation (1) after correction due to the infer filter effect (2):(1) F0/F=1+kqτ[Q]=1+KSV (2) Fcorr=Fobs10^(Aex+Aem)/2 where F0 and F are the fluorescence intensities (after correction) of the protein and protein in the presence of L1–3, respectively, kq is the quenching rate constant, τ0 the average lifetime, [Q] is the L1–3 concentration, Ksv is the Stern–Volmer constant, and Fcorr, and Fobs are the corrected and observed fluorescence intensities, respectively. Aex and Aem are the absorbance values at excitation and emission wavelengths, respectively. A linear regression fit was used to calculate the value of the Stern–Volmer constant (Ksv). Then, assuming the average lifetime of the fluorophore in the excited state for a biomolecule as 10^−8 s, the quenching rate constant (kq) was computed. For dynamic quenching, the maximum scatters collision quenching rate constant for different quenchers with the biopolymers was reported to be 2 × 10^10 dm^3mol^−1s^−1 [55, 56]. […] Collisional quenching occurs when the excited-state fluorophore is deactivated by contact with some other molecule in solution (by collisions). […] This is a dynamic mechanism of quenching. The quenching constant characterizes the quenching mechanism. The maximum value for collisional quenching is 2 × 10^10 dm^3mol^−1s^−1. […] For further confirmation, measurements were made at, in addition to 297 K, temperatures 303 and 308 K. Experimental data points were fitted and analyzed using Equation (1).
Both for the complexes with BSA and with GGF, the binding constant (Kb) and the binding stoichiometry (n) were calculated. […] The values of Kb and n were calculated from the slope and the intercept of the log [(F0 − F)/F] versus log [Q] plot (Figure 2).
The forces involved in the interaction can be identified by measurement at different temperatures and then by thermodynamic analysis. The signs of the thermodynamic parameters identify the type of interactions. The enthalpy change (ΔH°), the entropic change (ΔS°), and the free energy change (ΔG°) were calculated from Equations (4) and (5):(4) […]=−ΔH^°/RT+ΔS^°/R (5) ΔG^°=ΔH^°−TΔS^°=−RTlnKb where Kb is the binding constant and R is the universal gas constant. To determine the thermodynamic parameters, the van’t Hoff plot was first conducted, i.e., the temperature dependence of the binding constant, according to Equation (4). The Kb values at the three temperatures were fitted by the linear regression method. The values of ΔH and ΔS were calculated from the slope and intercept at the fitted line. Next, the free energy change (ΔG°) was obtained from Equation (5).

[2] = 297 K, BSA 1.0 µM, phosphate buffer
[3] = 308 K, BSA 1.0 µM, phosphate buffer

Row | SMILES | Kb constant to BSA (BSA) | binding constant Kb [1, 2] | binding constant Kb [1, 3] | binding constant Kb ([1]; 303 K, BSA 1.0 µM, phosphate buffer) | binding constant Kb ([1]; BSA, 297 K)
1 | CS(=O)(=O)CCNCc1ccc(-c2ccc3ncnc(Nc4ccc(OCc5cccc(F)c5)c(Cl)c4)c3c2)o1 [lapatinib] | 2.24 × 10^5 dm^3mol^−1 | – | – | – | –
2 | CCN(CC)CCNC(=O)c1c(C)[nH]c(/C=C2\C(=O)Nc3ccc(F)cc32)c1C [sunitinib] | 1.32 × 10^5 dm^3mol^−1 | – | – | – | –
3 | COc1cc2ncnc(Nc3ccc(F)c(Cl)c3)c2cc1OCCCN1CCOCC1 [gefitinib] | 8.32 × 10^4 dm^3mol^−1 | – | – | – | –
4 | N=C(N)NCCC[C@H](NC(=O)[C@H](CCCCN)NC(=O)[C@H](Cc1ccccc1F)NC(=O)[C@@H]1CCCN1C(=O)[C@H](CCCN)NC(=O)CNC(=O)[C@H](CCN)NC(=O)[C@H](CCN)NC(=O)[C@@H](N)CCCCN)C(=O)O [L3, Lys-Dab-Dab-Gly-Orn-Pro-Phe(2-F)-Lys-Arg] (H-K[Dab][Dab]G[Orn]P[Phe(2-F)]KR-OH) | – | 2.52 ± 0.07 × 10^4 dm^3mol^−1 | 0.76 ± 0.03 × 10^4 dm^3mol^−1 | – | –
5 | C[C@H](NC(=O)[C@H](CCN)NC(=O)[C@@H](N)CCCCN)C(=O)NCC(=O)N[C@@H](CCCN)C(=O)N1CCC[C@H]1C(=O)N[C@@H](Cc1c[nH]cn1)C(=O)N[C@@H](CCCCN)C(=O)N[C@@H](CCCNC(=N)N)C(=O)O [L2, Lys-Dab-Ala-Gly-Orn-Pro-His-Lys-Arg] (H-K[Dab]AG[Orn]PHKR-OH) | – | 3.39 ± 0.06 × 10^4 dm^3mol^−1 | 0.55 ± 0.02 × 10^4 dm^3mol^−1 | 1.10 ± 0.05 × 10^4 dm^3mol^−1 | 3.39 × 10^4 dm^3mol^−1
